The values that follow come from PubChem BioAssay (NCI).

By GI50 is commonly meant the concentration giving 50% growth inhibition. Usually TGI stands for the concentration at which net growth stops. A high value points to lower sensitivity of the cells.

Values joined by “and” are separate entries in the source; they are usually repeats but may differ in a detail not shown here. Identical values can stand only once.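 48-hour exposure; five concentrations; linearly interpolated endpoints. GI50 marks 50% less growth. TGI: total growth inhibition.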 Where a SMILES comes first, the peptide text is derived from it. [ ]: non-standard residue; d: D form. The star is where a group is joined. ξ: configuration not given here. X3 = COc1ccc(C(N*)c2ccc(OC)cc2)cc1; NMeF = CN[C@@H](Cc1ccccc1)C(=O)O; NMeD = CN[C@@H](CC(=O)O)C(=O)O; NMeV = CN[C@H](C(=O)O)C(C)C; ξNMeV = CNC(C(=O)O)C(C)C; Boc = CC(C)(C)OC(=O)*; ξNMeA = CNC(C)C(=O)O; ξV = CC(C)C(N)C(=O)O Some results are limits rather than exact numbers.

Test systems include HCT-116 colon; K-562 leukemia; SNB-75 CNS; RPMI-8226 leukemia; 786-0 renal; HL-60(TB) leukemia; OVCAR-4 ovarian; MDA-MB-435; COLO 205 colon; IGROV1 ovarian.
What all share (experiment): DTP human tumour cell line panel, 48 h

Consider `COc1ccc(C(NC(=O)C[C@@H](C(=O)N(C)C(C)C(=O)O)N(C)C(=O)[C@@H]2CCCN2C(=O)[C@H](C(C)C)N(C)C(=O)C(C(C)C)N(C)C(=O)[C@H](Cc2ccccc2)N(C)C(=O)C(NC(=O)OC(C)(C)C)C(C)C)c2ccc(OC)cc2)cc1` (stereo partly drawn) (Boc-[ξV][NMeF][ξNMeV][NMeV]P[NMeD](X3)[ξNMeA]-OH), for which the GI50 in the experiment with HCT-116 colon is 17.3 µM; in the experiment on K-562 leukemia it was 18.9 µM; in the experiment with SNB-75 CNS, 15.8 µM; in the experiment with 786-0 renal it was 17.9 µM; in the experiment with HL-60(TB) leukemia, 24 µM; with OVCAR-4 ovarian, 24.8 µM. Further, the figures for the GI50 with COLO 205 colon and in the experiment with IGROV1 ovarian were 17.2 µM and 14.7 µM, respectively. In addition, the TGI was 36.2 µM and 34.6 µM in the experiment on HCT-116 colon; 26.9 µM and 43.8 µM in the experiment on K-562 leukemia; 17.6 µM and 30.7 µM in the experiment with SNB-75 CNS; 19.5 µM with RPMI-8226 leukemia; 33.4 µM and 31.7 µM in the experiment with 786-0 renal; 18.7 µM and 45.2 µM in the experiment on HL-60(TB) leukemia. Also, the TGI with OVCAR-4 ovarian was 37.5 µM and 64.5 µM; with MDA-MB-435 it was 20 µM; with COLO 205 colon, 32.1 µM and 30.9 µM; in the experiment with IGROV1 ovarian it was 27.8 µM and 28 µM.
Turning to `O=[N+]([O-])c1ccc(Cl)cc1N/N=C/c1ccnc2ccccc12`, the TGI in the experiment on HCT-116 colon, in the experiment with K-562 leukemia, with SNB-75 CNS, in the experiment with RPMI-8226 leukemia, in the experiment on 786-0 renal and in the experiment on HL-60(TB) leukemia was greater than 100 µM in each case. The total growth inhibition concentration (TGI) with OVCAR-4 ovarian, in the experiment with MDA-MB-435, in the experiment on COLO 205 colon and in the experiment on IGROV1 ovarian was greater than 100 µM each time.
On to `C[C@]12CCC3c4ccc(O)cc4CCC3C1CC[C@@]2(O)CNC(=O)/C=C/c1ccc(O)c(O)c1` (stereo partly drawn), for which the GI50 in the experiment on HCT-116 colon is 3.34 µM; with K-562 leukemia, 3.38 µM; with SNB-75 CNS, 13.2 µM; with RPMI-8226 leukemia, 8.56 µM; with 786-0 renal it was 11.4 µM; in the experiment with HL-60(TB) leukemia, 3.99 µM. Further, the GI50 in the experiment on OVCAR-4 ovarian was 26.4 µM; in the experiment with MDA-MB-435, 3.01 µM; with COLO 205 colon, 3.55 µM; with IGROV1 ovarian, 2.47 µM. Moreover, the concentration for total growth inhibition (TGI) is 11.2 µM with HCT-116 colon; 12.6 µM in the experiment with K-562 leukemia; 29 µM with SNB-75 CNS; 50.7 µM with RPMI-8226 leukemia; 24.9 µM in the experiment on 786-0 renal; 20.1 µM in the experiment on HL-60(TB) leukemia. For the same compound, the TGI came out at 81.3 µM in the experiment on OVCAR-4 ovarian, 8.07 µM in the experiment with MDA-MB-435, 10.4 µM in the experiment with COLO 205 colon and 7.26 µM in the experiment with IGROV1 ovarian.
Take `O=C(/C=C/c1ccc(O)cc1)c1ccc(O)cc1`: the TGI in the experiment on HCT-116 colon is 36.3 µM; with K-562 leukemia, greater than 82.3 µM; in the experiment on SNB-75 CNS, 51.7 µM; in the experiment with RPMI-8226 leukemia it was 69 µM; with 786-0 renal, greater than 100 µM; with HL-60(TB) leukemia, greater than 75.1 µM. Moreover, the total growth inhibition concentration (TGI) is greater than 100 µM in the experiment with OVCAR-4 ovarian, greater than 100 µM with MDA-MB-435, greater than 65.9 µM with COLO 205 colon and greater than 100 µM in the experiment with IGROV1 ovarian.
Turning to `CCCCCCCCCCn1cc[n+](C)c1`, the GI50 in the experiment with HCT-116 colon is 1.37 µM; in the experiment with K-562 leukemia, 0.263 µM; with SNB-75 CNS, 2.69 µM; in the experiment on RPMI-8226 leukemia, 0.109 µM; in the experiment with 786-0 renal it was 2.39 µM; in the experiment on HL-60(TB) leukemia, 0.226 µM. For the same compound, the GI50 with OVCAR-4 ovarian was 1.31 µM; in the experiment on MDA-MB-435, 1.4 µM; with COLO 205 colon, 1.7 µM; in the experiment on IGROV1 ovarian, 2.07 µM. For the same compound, the TGI is greater than 36.9 µM in the experiment on HCT-116 colon; 3.67 µM with K-562 leukemia; 11.4 µM in the experiment with SNB-75 CNS; 0.448 µM in the experiment on RPMI-8226 leukemia; 18.1 µM in the experiment with 786-0 renal; 1.7 µM with HL-60(TB) leukemia. The concentration for total growth inhibition (TGI) in the experiment on OVCAR-4 ovarian was greater than 61.4 µM; in the experiment on MDA-MB-435, 8.64 µM; with COLO 205 colon, 7.01 µM; in the experiment with IGROV1 ovarian, 10.1 µM.
On to `COc1ccc2nc(NC(=O)CSc3nnc4n3S(=O)(=O)c3ccccc3N4c3ccccc3)sc2c1`, for which the GI50 in the experiment with HCT-116 colon is 94.1 µM; with K-562 leukemia, greater than 100 µM; in the experiment with SNB-75 CNS it was 15.9 µM; with RPMI-8226 leukemia, 1.45 µM; in the experiment with 786-0 renal, 12.4 µM; in the experiment with HL-60(TB) leukemia, 91.5 µM. Moreover, the GI50 with OVCAR-4 ovarian is greater than 100 µM; in the experiment with MDA-MB-435 it was greater than 100 µM; in the experiment on COLO 205 colon it was greater than 100 µM; in the experiment with IGROV1 ovarian it was 5.47 µM. Also, the TGI was greater than 100 µM with HCT-116 colon; greater than 100 µM in the experiment with K-562 leukemia; greater than 100 µM in the experiment on SNB-75 CNS; greater than 100 µM in the experiment with RPMI-8226 leukemia; 93.1 µM with 786-0 renal; greater than 100 µM with HL-60(TB) leukemia. The TGI with OVCAR-4 ovarian was greater than 100 µM; with MDA-MB-435, greater than 100 µM; in the experiment on COLO 205 colon it was greater than 100 µM; with IGROV1 ovarian, 55.1 µM.
Turning to `COC[C@H]1Cn2cc(-c3nc(Nc4ccnn4C)ncc3C)nc2C(=O)N1Cc1ccc(F)c(F)c1`, the GI50 in the experiment with HCT-116 colon is 0.124 µM; with K-562 leukemia, 5.85 µM; in the experiment with SNB-75 CNS it was 9.59 µM; with RPMI-8226 leukemia, 4.47 µM; in the experiment with 786-0 renal, 88 µM; with HL-60(TB) leukemia, 0.471 µM. The GI50 in the experiment on OVCAR-4 ovarian was 17.8 µM; with MDA-MB-435 it was 0.186 µM; in the experiment on COLO 205 colon, 0.0203 µM; in the experiment with IGROV1 ovarian, 0.315 µM. For the same compound, the TGI with HCT-116 colon is greater than 100 µM; in the experiment with K-562 leukemia, greater than 100 µM; with SNB-75 CNS, greater than 100 µM; in the experiment with RPMI-8226 leukemia, greater than 100 µM; in the experiment with 786-0 renal it was greater than 100 µM; in the experiment with HL-60(TB) leukemia, 10.6 µM. For the same compound, the TGI in the experiment with OVCAR-4 ovarian, in the experiment with MDA-MB-435, in the experiment with COLO 205 colon and with IGROV1 ovarian was greater than 100 µM throughout.
Take `COc1cccc(-c2nc(-c3ccc(NC(=O)OC(C)C)cc3)[nH]c2-c2ccnc(Br)c2)c1`: the GI50 is 2.68 µM in the experiment with HCT-116 colon; 1.88 µM with K-562 leukemia; 0.567 µM in the experiment on SNB-75 CNS; 0.389 µM in the experiment on RPMI-8226 leukemia; 0.974 µM in the experiment on 786-0 renal; 1.38 µM in the experiment with HL-60(TB) leukemia. Besides, the GI50 with OVCAR-4 ovarian was 3.09 µM; in the experiment on MDA-MB-435, 3.11 µM; in the experiment with COLO 205 colon, 3.26 µM; with IGROV1 ovarian, 3.54 µM. Further, the TGI with HCT-116 colon was greater than 100 µM; with K-562 leukemia it was greater than 100 µM; in the experiment on SNB-75 CNS it was greater than 100 µM; in the experiment with RPMI-8226 leukemia, 2.21 µM; in the experiment on 786-0 renal, greater than 100 µM; with HL-60(TB) leukemia, 4.06 µM. The TGI in the experiment with OVCAR-4 ovarian, in the experiment on MDA-MB-435, in the experiment with COLO 205 colon and in the experiment with IGROV1 ovarian was greater than 100 µM throughout.
As to `O=C1CCCCN1c1ccccc1C#C/C=C\C#Cc1ccccc1C(F)(F)F`, the GI50 was 1.01 µM in the experiment on HCT-116 colon; 1.46 µM in the experiment on K-562 leukemia; 1.61 µM in the experiment with SNB-75 CNS; 1.9 µM in the experiment with RPMI-8226 leukemia; 1.61 µM in the experiment on 786-0 renal; 1.27 µM in the experiment with HL-60(TB) leukemia. For the same compound, the GI50 was 3.6 µM in the experiment on OVCAR-4 ovarian, 0.603 µM in the experiment on MDA-MB-435, 11.5 µM in the experiment on COLO 205 colon and 1.12 µM with IGROV1 ovarian. The TGI in the experiment with HCT-116 colon turned out to be 2.59 µM; in the experiment on K-562 leukemia it was 8.65 µM; with SNB-75 CNS it was 11.4 µM; in the experiment with RPMI-8226 leukemia, 6.71 µM; in the experiment with 786-0 renal it was 7.26 µM; in the experiment on HL-60(TB) leukemia it was 3.29 µM. The total growth inhibition concentration (TGI) was 19.1 µM with OVCAR-4 ovarian, 1.8 µM with MDA-MB-435, greater than 50 µM in the experiment on COLO 205 colon and 3.63 µM in the experiment with IGROV1 ovarian.
In the case of `CCN(Cc1ccc(F)cc1)c1cc(Cl)c(CO)c(Cl)c1`, the GI50 was 5.15 µM in the experiment with HCT-116 colon; 15.9 µM in the experiment with K-562 leukemia; 12.8 µM in the experiment on SNB-75 CNS; 10.7 µM in the experiment with RPMI-8226 leukemia; 16 µM in the experiment on 786-0 renal; 13 µM in the experiment with HL-60(TB) leukemia. In addition, the GI50 is 10.7 µM in the experiment with OVCAR-4 ovarian, 17.9 µM in the experiment on MDA-MB-435, 17.3 µM in the experiment on COLO 205 colon and 4.08 µM in the experiment with IGROV1 ovarian. Moreover, the TGI in the experiment with HCT-116 colon is 18.7 µM; in the experiment with K-562 leukemia, 51.6 µM; with SNB-75 CNS it was 25.9 µM; with RPMI-8226 leukemia it was 42.9 µM; in the experiment on 786-0 renal, 32.5 µM; in the experiment on HL-60(TB) leukemia, 32.6 µM. Besides, the TGI in the experiment on OVCAR-4 ovarian was found to be 22.5 µM; with MDA-MB-435, 37 µM; in the experiment on COLO 205 colon it was 31.4 µM; in the experiment with IGROV1 ovarian, 17.9 µM.
For `Cc1nnc(NC(=O)c2nc(S(=O)(=O)Cc3ccc(F)cc3)ncc2Cl)s1`, the GI50 with HCT-116 colon is 1.83 µM; with K-562 leukemia, 1.77 µM; with SNB-75 CNS it was 3.25 µM; in the experiment with RPMI-8226 leukemia it was 2.21 µM; with 786-0 renal, 4.32 µM; in the experiment with HL-60(TB) leukemia, 2.6 µM. Besides, the GI50 in the experiment on OVCAR-4 ovarian is 1.8 µM; in the experiment with MDA-MB-435 it was 1.82 µM; in the experiment with COLO 205 colon it was 1.82 µM; in the experiment with IGROV1 ovarian, 4.87 µM. The TGI with HCT-116 colon came to 3.67 µM; in the experiment with K-562 leukemia, 4.52 µM; with SNB-75 CNS, 17.6 µM; in the experiment on RPMI-8226 leukemia, 12.8 µM; in the experiment with 786-0 renal it was 15.5 µM; in the experiment on HL-60(TB) leukemia, 4.73 µM. In addition, the TGI with OVCAR-4 ovarian was 3.8 µM; with MDA-MB-435 it was 3.43 µM; with COLO 205 colon, 3.68 µM; in the experiment on IGROV1 ovarian it was 19.1 µM.
